In patent US20250197368A1 (priority 2020, published 2025):

Assays:
[1] = target: human α2β3γ2 GABAARs (benzodiazepine site) (Homo sapiens (Human), UniProt P18507+P47869); experiment: In vitro radioligand binding assay ([3H]Ro15-1788 displacement), α2-GABAAR Ki
How it was run: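 Ki derived via Cheng-Prusoff from IC50 for displacement of 4 nM [3H]Ro15-1788 (Kd from saturation binding), with 1-3 μM TP003 defining nonspecific binding. Incubation lasted 1 h at 4° C on membranes of induced L(tk−) cells stably transfected with the human subunits; detection by filtration and scintillation counting.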

[2] = test system: human α2β3γ2 GABAARs; experiment: In vitro electrophysiological recording assay (automated patch-clamp), α2-GABAAR relative efficacy; type: cell-based; settings: % efficacy normalised to diazepam; GABA EC10-20; concentration generally >= 100 times Ki
How it was run: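 Relative efficacy is % enhancement of the leak-subtracted GABA EC10-20 peak current, divided by the separately measured diazepam value; compound generally tested at ≥100× Ki after ≥1 min pre-application. Recordings at room temperature, human receptors stably expressed in L(tk^−) (QPatch, −65 mV) or HEK293 (SyncroPatch, −80 mV) cells.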

Sequence of human α2β3γ2 GABAARs (benzodiazepine site) (P47869 29-451): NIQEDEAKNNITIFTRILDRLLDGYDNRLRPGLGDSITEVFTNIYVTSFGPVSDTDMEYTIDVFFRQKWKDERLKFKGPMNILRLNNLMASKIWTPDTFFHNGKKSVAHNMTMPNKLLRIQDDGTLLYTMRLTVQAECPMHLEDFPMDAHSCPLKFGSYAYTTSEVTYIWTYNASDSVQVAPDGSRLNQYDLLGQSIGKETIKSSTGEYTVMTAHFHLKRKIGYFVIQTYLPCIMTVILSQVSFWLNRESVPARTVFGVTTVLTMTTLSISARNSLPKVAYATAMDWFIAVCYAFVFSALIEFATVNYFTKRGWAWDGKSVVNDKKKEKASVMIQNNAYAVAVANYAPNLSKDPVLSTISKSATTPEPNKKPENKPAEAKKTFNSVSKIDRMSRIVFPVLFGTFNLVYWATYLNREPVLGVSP
Sequence of human α2β3γ2 GABAARs (benzodiazepine site) (P28472 26-473 partner): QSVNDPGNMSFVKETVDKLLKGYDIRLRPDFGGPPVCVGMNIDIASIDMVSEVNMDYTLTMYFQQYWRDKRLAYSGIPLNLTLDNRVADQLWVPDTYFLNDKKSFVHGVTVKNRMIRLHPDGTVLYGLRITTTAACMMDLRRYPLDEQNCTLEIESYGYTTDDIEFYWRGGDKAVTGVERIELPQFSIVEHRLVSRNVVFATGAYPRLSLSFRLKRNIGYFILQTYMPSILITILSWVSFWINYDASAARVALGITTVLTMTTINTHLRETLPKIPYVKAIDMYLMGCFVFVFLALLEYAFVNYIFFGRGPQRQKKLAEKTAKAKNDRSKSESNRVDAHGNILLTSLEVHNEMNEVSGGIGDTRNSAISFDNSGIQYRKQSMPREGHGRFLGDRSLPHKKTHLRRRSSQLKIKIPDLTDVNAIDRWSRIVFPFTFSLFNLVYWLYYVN
Sequence of human α2β3γ2 GABAARs (benzodiazepine site) (P18507 40-475): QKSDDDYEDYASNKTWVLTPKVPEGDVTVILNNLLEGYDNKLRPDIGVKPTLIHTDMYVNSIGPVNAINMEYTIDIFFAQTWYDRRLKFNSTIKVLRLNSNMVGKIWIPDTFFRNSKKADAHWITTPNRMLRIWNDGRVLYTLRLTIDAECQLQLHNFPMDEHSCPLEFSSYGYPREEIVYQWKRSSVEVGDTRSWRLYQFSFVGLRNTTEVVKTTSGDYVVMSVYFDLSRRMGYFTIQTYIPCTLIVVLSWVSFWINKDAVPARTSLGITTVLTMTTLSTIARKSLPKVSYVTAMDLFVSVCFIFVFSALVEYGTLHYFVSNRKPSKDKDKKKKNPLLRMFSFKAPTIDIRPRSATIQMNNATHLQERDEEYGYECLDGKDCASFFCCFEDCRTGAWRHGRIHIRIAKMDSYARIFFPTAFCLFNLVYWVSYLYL

Row | Structure (SMILES) | Ki [1] | α2-GABAAR Relative Efficacy (vs. Diazepam) [2]
1 | CCCNC(=O)c1c(N)c2cccc(-c3cn(C)nc3C)c2n(CC)c1=O [Example 83, 4-Amino-8-(1,3-dimethylpyrazol-4-yl)-1-ethyl-2-oxo-N-propyl-quinoline-3-carboxamide] | 15.7 nM | 0.40
2 | CCCNC(=O)c1c(N)c2cccc(-c3cc(OCc4ccccn4)ccc3C)c2[nH]c1=O [Example 86, 4-Amino-8-[2-methyl-5-(2-pyridylmethoxy)phenyl]-2-oxo-N-propyl-1H-quinoline-3-carboxamide] | 1.71 nM | 0.28
3 | CCCNC(=O)c1c(N)c2cccc(-c3cccc(OCc4ccccn4)c3)c2[nH]c1=O [Example 87, 4-Amino-2-oxo-N-propyl-8-[3-(2-pyridylmethoxy)phenyl]-1H-quinoline-3-carboxamide] | 1.78 nM | 0.24
4 | CCCNC(=O)c1c(N)c2cccc(-c3cc(OCc4cccc(OC)n4)ccc3F)c2[nH]c1=O [Example 89, 4-Amino-8-[2-fluoro-5-[(6-methoxy-2-pyridyl)methoxy]phenyl]-2-oxo-N-propyl-1H-quinoline-3-carboxamide] | 1.55 nM | 0.3
5 | CCCNC(=O)c1c(N)c2cccc(-c3cc(OCc4cccc(C(F)(F)F)n4)ccc3F)c2[nH]c1=O [Example 90, 4-Amino-8-[2-fluoro-5-[[6-(trifluoromethyl)-2-pyridyl]methoxy]phenyl]-2-oxo-N-propyl-1H-quinoline-3-carboxamide] | 3 nM | 0.18
6 | CCCNC(=O)c1c(N)c2cccc(-c3cc(OCc4ccc(F)cn4)ccc3C)c2[nH]c1=O [Example 93] | 1.63 nM | 0.34
7 | CCCNC(=O)c1c(N)c2cccc(-c3cccc(OCc4ccc(F)cn4)c3)c2[nH]c1=O [Example 94, 4-Amino-8-[3-[(5-fluoro-2-pyridyl)methoxy]phenyl]-2-oxo-N-propyl-1H-quinoline-3-carboxamide] | 2.42 nM | 0.28
8 | CCCNC(=O)c1c(N)c2cccc(-c3cc(OCc4ccc(C)cn4)ccc3F)c2[nH]c1=O [Example 95, 4-Amino-8-[2-fluoro-5-[(5-methyl-2-pyridyl)methoxy]phenyl]-2-oxo-N-propyl-1H-quinoline-3-carboxamide] | 0.44 nM | 0.22
9 | CCCNC(=O)c1c(N)c2cccc(-c3cc(OCc4ccc(OC)cn4)ccc3F)c2[nH]c1=O [Example 96, 4-Amino-8-[2-fluoro-5-[(5-methoxy-2-pyridyl)methoxy]phenyl]-2-oxo-N-propyl-1H-quinoline-3-carboxamide] | 0.92 nM | 0.24
10 | CCCNC(=O)c1c(N)c2cccc(-c3cc(OCc4ccc(Cl)cn4)ccc3F)c2[nH]c1=O [Example 97, 4-Amino-8-[5-[(5-chloro-2-pyridyl)methoxy]-2-fluoro-phenyl]-2-oxo-N-propyl-1H-quinoline-3-carboxamide] | 0.72 nM | 0.25
11 | CCCNC(=O)c1c(N)c2cccc(-c3cc(OCc4ccc(C(F)(F)F)cn4)ccc3F)c2[nH]c1=O [Example 98, 4-Amino-8-[2-fluoro-5-[[5-(trifluoromethyl)-2-pyridyl]methoxy]phenyl]-2-oxo-N-propyl-1H-quinoline-3-carboxamide] | 0.61 nM | 0.29
12 | CCCNC(=O)c1c(N)c2cccc(-c3cc(OCc4ccc(C#N)cn4)ccc3F)c2[nH]c1=O [Example 99, 4-Amino-8-[5-[(5-cyano-2-pyridyl)methoxy]-2-fluoro-phenyl]-2-oxo-N-propyl-1H-quinoline-3-carboxamide] | 0.24 nM | 0.28
13 | CCCNC(=O)c1c(N)c2cccc(-c3cc(OCc4cc(OC)ccn4)ccc3F)c2[nH]c1=O [Example 100, 4-Amino-8-[2-fluoro-5-[(4-methoxy-2-pyridyl)methoxy]phenyl]-2-oxo-N-propyl-1H-quinoline-3-carboxamide] | 0.07 nM | 0.18
14 | CCCNC(=O)c1c(N)c2cccc(-c3cc(OCc4cc(C#N)ccn4)ccc3F)c2[nH]c1=O [Example 101, 4-Amino-8-[5-[(4-cyano-2-pyridyl)methoxy]-2-fluoro-phenyl]-2-oxo-N-propyl-1H-quinoline-3-carboxamide] | 0.19 nM | 0.31
15 | CCCNC(=O)c1c(N)c2cccc(-c3cc(OCc4cc(CO)ccn4)ccc3F)c2[nH]c1=O [Example 102, 4-Amino-8-(2-fluoro-5-((4-(hydroxymethyl)pyridin-2-yl)methoxy)phenyl)-2-oxo-N-propyl-1,2-dihydroquinoline-3-carboxamide] | 0.7 nM | 0.33
16 | CCCNC(=O)c1c(N)c2cccc(-c3cc(OCc4ncccc4C)ccc3F)c2[nH]c1=O [Example 103, 4-Amino-8-[2-fluoro-5-[(3-methyl-2-pyridyl)methoxy]phenyl]-2-oxo-N-propyl-1H-quinoline-3-carboxamide] | 1.68 nM | 0.37
17 | CCCNC(=O)c1c(N)c2cccc(-c3cc(COc4ccccn4)ncc3F)c2[nH]c1=O [Example 104, 4-Amino-8-(5-fluoro-2-((pyridin-2-yloxy)methyl)pyridin-4-yl)-2-oxo-N-propyl-1,2-dihydroquinoline-3-carboxamide] | 2.08 nM | 0.27
18 | CCCNC(=O)c1c(N)c2cccc(-c3cc(OCc4cccnn4)ccc3F)c2[nH]c1=O [Example 105, 4-Amino-8-[2-fluoro-5-(pyridazin-3-ylmethoxy)phenyl]-2-oxo-N-propyl-1H-quinoline-3-carboxamide] | 0.21 nM | 0.19
19 | CCCNC(=O)c1c(N)c2cccc(-c3cc(OCc4ccnnc4)ccc3F)c2[nH]c1=O [Example 106, 4-Amino-8-[2-fluoro-5-(pyridazin-4-ylmethoxy)phenyl]-2-oxo-N-propyl-1H-quinoline-3-carboxamide] | 0.41 nM | 0.22
20 | CCCNC(=O)c1c(N)c2cccc(-c3cc(OCc4cncnc4)ccc3F)c2[nH]c1=O [Example 107, 4-Amino-8-[2-fluoro-5-(pyrimidin-5-ylmethoxy)phenyl]-2-oxo-N-propyl-1H-quinoline-3-carboxamide] | 0.2 nM | 0.17
21 | CCCNC(=O)c1c(N)c2cccc(-c3cc(OCc4cccnc4)ccc3F)c2[nH]c1=O [Example 108, 4-Amino-8-[2-fluoro-5-(3-pyridylmethoxy)phenyl]-2-oxo-N-propyl-1H-quinoline-3-carboxamide] | 0.39 nM | 0.32
22 | CCCNC(=O)c1c(N)c2cccc(-c3cc(OCc4cccnc4C#N)ccc3F)c2[nH]c1=O [Example 109, 4-Amino-8-[5-[(2-cyano-3-pyridyl)methoxy]-2-fluoro-phenyl]-2-oxo-N-propyl-1H-quinoline-3-carboxamide] | 0.17 nM | 0.21
23 | CCCNC(=O)c1c(N)c2cccc(-c3cc(COc4ccc(C)nc4)ccc3F)c2[nH]c1=O [Example 112, 4-Amino-8-[2-fluoro-5-[(6-methyl-3-pyridyl)oxymethyl]phenyl]-2-oxo-N-propyl-1H-quinoline-3-carboxamide] | 0.57 nM | 0.11
24 | CCCNC(=O)c1c(N)c2cccc(-c3cc(OCc4ccncc4)ccc3F)c2[nH]c1=O [Example 113, 4-Amino-8-[2-fluoro-5-(4-pyridylmethoxy)phenyl]-2-oxo-N-propyl-1H-quinoline-3-carboxamide] | 0.12 nM | 0.24
25 | CCCNC(=O)c1c(N)c2cccc(-c3cc(OCc4ccc(F)cc4C#N)ccc3F)c2[nH]c1=O [Example 114, 4-Amino-8-[5-[(2-cyano-4-fluoro-phenyl)methoxy]-2-fluoro-phenyl]-2-oxo-N-propyl-1H-quinoline-3-carboxamide] | 0.73 nM | 0.38
26 | CCCNC(=O)c1c(N)c2cccc(-c3cc(OCc4ccc(C#N)cc4OC)ccc3F)c2[nH]c1=O [Example 115, 4-Amino-8-[5-[(4-cyano-2-methoxy-phenyl)methoxy]-2-fluoro-phenyl]-2-oxo-N-propyl-1H-quinoline-3-carboxamide] | 2.01 nM | 0.34
27 | CCCNC(=O)c1c(N)c2cccc(-c3cc(OCc4ccoc4)ccc3F)c2[nH]c1=O [Example 116, 4-Amino-8-(2-fluoro-5-(furan-3-ylmethoxy)phenyl)-2-oxo-N-propyl-1,2-dihydroquinoline-3-carboxamide] | 1.17 nM | 0.42
28 | CCCNC(=O)c1c(N)c2cccc(-c3cc(OCc4scnc4C)ccc3F)c2[nH]c1=O [Example 117, 4-Amino-8-[2-fluoro-5-[(4-methylthiazol-5-yl)methoxy]phenyl]-2-oxo-N-propyl-1H-quinoline-3-carboxamide] | 1.6 nM | 0.23
29 | CCCNC(=O)c1c(N)c2cccc(-c3cc(OCc4nc(C)cs4)ccc3F)c2[nH]c1=O [Example 118, 4-Amino-8-[2-fluoro-5-[(4-methylthiazol-2-yl)methoxy]phenyl]-2-oxo-N-propyl-1H-quinoline-3-carboxamide] | 0.5 nM | 0.29
30 | CCCNC(=O)c1c(N)c2cccc(-c3cc(OCc4cscn4)ccc3F)c2[nH]c1=O [Example 119, 4-Amino-8-(2-fluoro-5-(thiazol-4-ylmethoxy)phenyl)-2-oxo-N-propyl-1,2-dihydroquinoline-3-carboxamide] | 0.31 nM | 0.38
